Test results reported in ChEMBL document CHEMBL1201862, “PubChem BioAssay data set” (2004).
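Briefly, cells in 96-well plates were exposed to five compound concentrations for 48 h, and endpoints were estimated by linear interpolation. The concentration for 50% growth inhibition is given as GI50.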 Active and inactive are the calls of the source. Cut-off read from the data, not from the text of the source: active = GI50 up to about 1.1 µM and inactive = higher.

Legend:
Test in all cases: NCI anticancer screen, dose series, 48 h
[1] = test system: M14
[2] = test system: CCRF-CEM
[3] = test system: SW-620
[4] = test system: OVCAR-5
[5] = test system: EKVX
[6] = test system: HCT-15
[7] = test system: UO-31
[8] = test system: NCI-H522
[9] = test system: NCI-H460
[10] = test system: K562
[11] = test system: Malme-3M
[12] = test system: LOX IMVI
[13] = test system: CAKI-1
[14] = test system: RXF 393
[15] = test system: IGROV-1
[16] = test system: U-251

Row | SMILES | GI50 [1] | GI50 [2] | GI50 [3] | GI50 [4] | GI50 [5] | GI50 [6] | GI50 [7] | GI50 [8] | GI50 [9] | GI50 [10] | GI50 [11] | GI50 [12] | GI50 [13] | GI50 [14] | GI50 [15] | GI50 [16]
1 | CC(=O)Nc1ccc(C(=O)N2N=C(C)/C(=C\c3c(O)ccc4ccccc34)C2=O)cc1 | 85.1 µM (inactive) | 26.8 µM (inactive) | 75.2 µM (inactive) | > 100 µM (inactive) | > 100 µM (inactive) | 18.4 µM | 39 µM (inactive) | 67 µM (inactive) | > 100 µM (inactive) | 74.8 µM (inactive) | 24 µM (inactive) | 59.8 µM (inactive) | > 100 µM (inactive) | – | – | –
2 | O=S(=O)(N/N=C/c1ccc(/C=N/NS(=O)(=O)c2ccccc2)cc1)c1ccccc1 | > 100 µM (inactive) | 30.3 µM (inactive) | – | 4.36 µM (inactive) | 72.9 µM (inactive) | 44.1 µM | 63.2 µM (inactive) | – | 49.9 µM (inactive) | 29.4 µM (inactive) | > 100 µM (inactive) | 16 µM (inactive) | – | 27.7 µM (inactive) | 37.9 µM (inactive) | 41 µM (inactive)
3 | O=S1(=O)OCCOS(=O)(=O)C1Cc1ccccc1 | – | – | 65 µM (inactive) | > 100 µM (inactive) | 33.7 µM (inactive) | – | 57.8 µM (inactive) | 45.2 µM (inactive) | 33.2 µM (inactive) | 61 µM (inactive) | > 100 µM (inactive) | 35.7 µM (inactive) | 55.8 µM (inactive) | 41.1 µM (inactive) | 28.8 µM (inactive) | 24.4 µM (inactive)
4 | Cc1cc(C)c(C2=NO[C@@H]3C(=O)N(c4ccc(Cc5ccc(N6C(=O)[C@H]7C(c8c(C)cc(C)cc8C)=NO[C@H]7C6=O)cc5)cc4)C(=O)[C@H]23)c(C)c1 | 64.4 µM (inactive) | > 100 µM (inactive) | > 100 µM (inactive) | > 100 µM (inactive) | > 100 µM (inactive) | > 100 µM | > 100 µM (inactive) | – | – | > 100 µM (inactive) | > 100 µM (inactive) | > 100 µM (inactive) | > 100 µM (inactive) | > 100 µM (inactive) | > 100 µM (inactive) | –
5 | CCOP(=O)(OCC)C1C(=O)O[C@H]2CCCC[C@@H]12 (stereo partly specified) | > 100 µM (inactive) | > 100 µM (inactive) | > 100 µM (inactive) | > 100 µM (inactive) | > 100 µM (inactive) | > 100 µM | – | – | > 100 µM (inactive) | > 100 µM (inactive) | > 100 µM (inactive) | > 100 µM (inactive) | > 100 µM (inactive) | > 100 µM (inactive) | > 100 µM (inactive) | > 100 µM (inactive)
6 | CC1=NN(C(=O)Cc2ccccc2)C(=O)/C1=C\c1ccccc1O | > 100 µM (inactive) | > 100 µM (inactive) | > 100 µM (inactive) | > 100 µM (inactive) | > 100 µM (inactive) | > 100 µM | > 100 µM (inactive) | > 100 µM (inactive) | > 100 µM (inactive) | > 100 µM (inactive) | > 100 µM (inactive) | > 100 µM (inactive) | > 100 µM (inactive) | > 100 µM (inactive) | > 100 µM (inactive) | > 100 µM (inactive)
7 | CN1CCCc2nc3ccccc3n2C1 | > 100 µM (inactive) | 88.3 µM (inactive) | > 100 µM (inactive) | > 100 µM (inactive) | > 100 µM (inactive) | > 100 µM | > 100 µM (inactive) | 97.7 µM (inactive) | > 100 µM (inactive) | > 100 µM (inactive) | > 100 µM (inactive) | > 100 µM (inactive) | > 100 µM (inactive) | > 100 µM (inactive) | > 100 µM (inactive) | > 100 µM (inactive)
8 | Cc1cccc(C)c1NC(=O)C(=O)C(C#N)c1ccccc1 (stereo unspecified) | > 100 µM (inactive) | > 100 µM (inactive) | > 100 µM (inactive) | > 100 µM (inactive) | > 100 µM (inactive) | > 100 µM | > 100 µM (inactive) | > 100 µM (inactive) | > 100 µM (inactive) | > 100 µM (inactive) | > 100 µM (inactive) | > 100 µM (inactive) | > 100 µM (inactive) | > 100 µM (inactive) | > 100 µM (inactive) | > 100 µM (inactive)
9 | CC1=NC=C(O)c2ccccc2O1 | > 100 µM (inactive) | > 100 µM (inactive) | > 100 µM (inactive) | – | > 100 µM (inactive) | > 100 µM | 85.5 µM (inactive) | – | > 100 µM (inactive) | > 100 µM (inactive) | > 100 µM (inactive) | > 100 µM (inactive) | – | > 100 µM (inactive) | > 100 µM (inactive) | > 100 µM (inactive)
10 | CCOc1ccccc1N1C(=O)C(=O)C(c2nc3ccccc3s2)C(=O)C1=O | > 100 µM (inactive) | – | 58.9 µM (inactive) | > 100 µM (inactive) | > 100 µM (inactive) | 76.9 µM | 34.7 µM (inactive) | – | 26.4 µM (inactive) | – | 33.8 µM (inactive) | 55.5 µM (inactive) | 38.5 µM (inactive) | > 100 µM (inactive) | 19.3 µM (inactive) | 49.3 µM (inactive)
11 | CC1=CC(N2C(=O)C(C)=CC2O)NC1=O (stereo unspecified) | > 100 µM (inactive) | – | > 100 µM (inactive) | > 100 µM (inactive) | > 100 µM (inactive) | – | > 100 µM (inactive) | > 100 µM (inactive) | > 100 µM (inactive) | – | 45.8 µM (inactive) | > 100 µM (inactive) | > 100 µM (inactive) | > 100 µM (inactive) | – | > 100 µM (inactive)
12 | Cc1cc(N(CCC#N)CCC#N)ccc1/C=C1/CN(N2C(=O)/C(=C/c3ccc(N(CCC#N)CCC#N)cc3C)N=C2c2ccccc2)C(c2ccccc2)=N1 | 90.4 µM (inactive) | > 100 µM (inactive) | > 100 µM (inactive) | > 100 µM (inactive) | > 100 µM (inactive) | > 100 µM | > 100 µM (inactive) | > 100 µM (inactive) | > 100 µM (inactive) | > 100 µM (inactive) | > 100 µM (inactive) | > 100 µM (inactive) | > 100 µM (inactive) | 28.4 µM (inactive) | > 100 µM (inactive) | 32 µM (inactive)
13 | O=c1/c(=C/c2ccccc2O)sc2nc3ccccc3n12 | 47.9 µM (inactive) | 16.3 µM (inactive) | 40.5 µM (inactive) | > 100 µM (inactive) | 15.3 µM (inactive) | 21.6 µM | 46.8 µM (inactive) | – | 35 µM (inactive) | 33.6 µM (inactive) | 32.2 µM (inactive) | 35.5 µM (inactive) | 34.6 µM (inactive) | 21.9 µM (inactive) | 16.9 µM (inactive) | –
14 | O=c1nc(/C=C/c2ccccc2Cl)cc2n1CCN2CCO | > 100 µM (inactive) | 50.4 µM (inactive) | > 100 µM (inactive) | > 100 µM (inactive) | > 100 µM (inactive) | > 100 µM | > 100 µM (inactive) | 24.3 µM (inactive) | > 100 µM (inactive) | 90.2 µM (inactive) | > 100 µM (inactive) | > 100 µM (inactive) | > 100 µM (inactive) | 95.1 µM (inactive) | > 100 µM (inactive) | –
15 | CCC(=O)C(C)C(=O)C(=O)C(=O)OC (stereo unspecified) | > 100 µM (inactive) | > 46.9 µM (inactive) | > 26.2 µM (inactive) | > 100 µM (inactive) | > 100 µM (inactive) | > 55.8 µM | > 100 µM (inactive) | > 100 µM (inactive) | > 100 µM (inactive) | > 66.1 µM (inactive) | > 100 µM (inactive) | > 80.7 µM (inactive) | > 100 µM (inactive) | > 63.5 µM (inactive) | > 100 µM (inactive) | > 47.3 µM (inactive)
16 | COc1nc2c(nc(N)n2C2OCC(O)C(O)C2O)c(=O)n1C (stereo unspecified) | > 100 µM (inactive) | > 100 µM (inactive) | > 100 µM (inactive) | – | > 100 µM (inactive) | – | > 100 µM (inactive) | > 100 µM (inactive) | > 100 µM (inactive) | > 100 µM (inactive) | > 100 µM (inactive) | > 100 µM (inactive) | > 100 µM (inactive) | > 100 µM (inactive) | > 100 µM (inactive) | > 100 µM (inactive)
17 | Brc1ccc2ns[s+]c2c1 | 0.45 µM (active) | 1.26 µM (inactive) | 8.63 µM (inactive) | – | 13 µM (inactive) | 0.343 µM | 4.36 µM (inactive) | 4.79 µM (inactive) | 3.3 µM (inactive) | 0.321 µM (active) | 33.5 µM (inactive) | 0.659 µM (active) | 2.49 µM (inactive) | > 100 µM (inactive) | 26.7 µM (inactive) | 16 µM (inactive)
18 | Cc1cc(CC(=O)NCCO)n(CCO)c(=O)c1 | > 100 µM (inactive) | > 100 µM (inactive) | > 100 µM (inactive) | > 100 µM (inactive) | – | – | > 100 µM (inactive) | > 100 µM (inactive) | > 100 µM (inactive) | > 100 µM (inactive) | > 100 µM (inactive) | > 100 µM (inactive) | > 100 µM (inactive) | > 100 µM (inactive) | > 100 µM (inactive) | > 100 µM (inactive)
19 | Cn1c(=O)nc2n(-c3ccc(F)c(F)c3)c3ccccc3nc-2c1=O | 13.8 µM (inactive) | 14.8 µM (inactive) | 7.85 µM (inactive) | 22.3 µM (inactive) | 4.82 µM (inactive) | 7.33 µM | 37.9 µM (inactive) | 10.4 µM (inactive) | 7.11 µM (inactive) | 15.5 µM (inactive) | 11.3 µM (inactive) | – | 38.4 µM (inactive) | 28.2 µM (inactive) | 15.2 µM (inactive) | 14.7 µM (inactive)
